Source: ChEMBL document CHEMBL1201862, “PubChem BioAssay data set” (2004)
Values belong to the compound of their own block, whether it stands above or below them. Activity calls are given as the source filed them.

Tests used:
[1] = molecular target: Melanocortin receptor 4 (Homo sapiens, UniProt P32245); assay: inhibitors of MC4R cAMP signaling – cell-based, TR-FRET, biased antagonists, dose response (AID 602298); format: functional;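 note: antagonist potency against agonist-stimulated cAMP production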
Sequence of Melanocortin receptor 4 (P32245 whole entry): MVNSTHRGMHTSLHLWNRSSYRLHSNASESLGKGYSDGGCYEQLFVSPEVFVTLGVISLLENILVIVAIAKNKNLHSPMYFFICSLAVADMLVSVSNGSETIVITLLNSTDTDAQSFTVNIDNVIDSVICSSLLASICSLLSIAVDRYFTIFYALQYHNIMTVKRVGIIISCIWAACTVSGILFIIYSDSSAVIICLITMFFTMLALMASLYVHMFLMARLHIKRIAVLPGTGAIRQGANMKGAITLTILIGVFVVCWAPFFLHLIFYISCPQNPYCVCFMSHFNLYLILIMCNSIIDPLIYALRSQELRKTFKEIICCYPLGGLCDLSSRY

[2] = cAMP pathway inhibition in counterscreen cell line – TR-FRET cAMP detection, counter-screen for MC4R biased antagonist project, dose response (AID 602305); format: functional, cell-based;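 note: U2OS cells stimulated with forskolin near its EC80 as the cAMP inducer; potency is for inhibition of forskolin-stimulated cAMP signaling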
[3] = molecular target: Cyclin-dependent kinase 2 (Homo sapiens, UniProt P24941); format: functional;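 note: CDK2 measured as one member of a broad kinome profiling panel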
[4] = molecular target: Serine/threonine-protein kinase pim-1 (Homo sapiens, UniProt P11309); format: functional
Sequence of Serine/threonine-protein kinase pim-1 (P11309 whole entry): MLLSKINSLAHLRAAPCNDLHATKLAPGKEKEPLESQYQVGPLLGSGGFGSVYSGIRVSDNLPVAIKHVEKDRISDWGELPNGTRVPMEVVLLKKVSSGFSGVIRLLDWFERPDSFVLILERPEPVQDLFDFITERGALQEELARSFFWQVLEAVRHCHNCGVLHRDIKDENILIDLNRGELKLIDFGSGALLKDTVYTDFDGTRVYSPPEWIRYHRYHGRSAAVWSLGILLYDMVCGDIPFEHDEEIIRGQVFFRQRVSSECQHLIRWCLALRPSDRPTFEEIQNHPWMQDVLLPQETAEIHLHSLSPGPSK

[5] = molecular target: Cell division cycle 7-related protein kinase (Homo sapiens, UniProt O00311); format: functional;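 note: value obtained from a kinome-wide kinase panel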
Sequence of Cell division cycle 7-related protein kinase (O00311 whole entry): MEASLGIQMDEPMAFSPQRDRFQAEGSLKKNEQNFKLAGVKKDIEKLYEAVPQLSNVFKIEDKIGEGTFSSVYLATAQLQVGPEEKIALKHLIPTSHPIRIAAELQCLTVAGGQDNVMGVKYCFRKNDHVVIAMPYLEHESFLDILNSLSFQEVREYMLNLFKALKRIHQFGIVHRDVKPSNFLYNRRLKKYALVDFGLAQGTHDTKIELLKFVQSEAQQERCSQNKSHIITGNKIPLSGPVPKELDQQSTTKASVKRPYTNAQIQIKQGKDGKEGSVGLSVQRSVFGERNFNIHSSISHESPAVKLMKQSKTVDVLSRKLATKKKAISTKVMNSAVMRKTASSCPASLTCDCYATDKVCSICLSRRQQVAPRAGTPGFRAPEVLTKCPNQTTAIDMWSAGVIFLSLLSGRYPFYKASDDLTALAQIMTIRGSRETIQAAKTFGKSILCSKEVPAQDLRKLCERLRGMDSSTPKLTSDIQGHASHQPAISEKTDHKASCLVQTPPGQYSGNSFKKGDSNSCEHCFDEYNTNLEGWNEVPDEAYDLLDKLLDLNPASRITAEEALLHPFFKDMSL

[6] = molecular target: Homeodomain-interacting protein kinase 2 (Homo sapiens, UniProt Q9H2X6); format: functional;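 note: measured within a kinome-wide kinase profiling panel, HIPK2 being one panel member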
[7] = molecular target: MAP kinase-interacting serine/threonine-protein kinase 2 (Homo sapiens, UniProt Q9HBH9); format: functional
Sequence of MAP kinase-interacting serine/threonine-protein kinase 2 (Q9HBH9 whole entry): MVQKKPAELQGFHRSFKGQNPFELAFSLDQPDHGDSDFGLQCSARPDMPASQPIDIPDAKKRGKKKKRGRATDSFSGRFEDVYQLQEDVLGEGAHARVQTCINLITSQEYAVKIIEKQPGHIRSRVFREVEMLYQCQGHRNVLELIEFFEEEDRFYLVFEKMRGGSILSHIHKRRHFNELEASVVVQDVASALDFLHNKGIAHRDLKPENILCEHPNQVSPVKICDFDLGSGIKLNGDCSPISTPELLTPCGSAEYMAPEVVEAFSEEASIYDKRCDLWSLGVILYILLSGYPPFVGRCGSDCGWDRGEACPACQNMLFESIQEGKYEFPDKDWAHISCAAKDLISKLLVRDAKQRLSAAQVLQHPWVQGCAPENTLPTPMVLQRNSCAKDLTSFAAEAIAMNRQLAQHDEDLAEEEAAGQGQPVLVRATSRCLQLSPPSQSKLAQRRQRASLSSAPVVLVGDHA

[8] = molecular target: Interleukin-1 receptor-associated kinase 4 (Homo sapiens, UniProt Q9NWZ3); format: functional
[9] = molecular target: Glycogen synthase kinase-3 beta (Homo sapiens, UniProt P49841); format: functional;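 note: value comes from a broad kinome profiling panel, with GSK3B as the panel member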
Sequence of Glycogen synthase kinase-3 beta (P49841 whole entry): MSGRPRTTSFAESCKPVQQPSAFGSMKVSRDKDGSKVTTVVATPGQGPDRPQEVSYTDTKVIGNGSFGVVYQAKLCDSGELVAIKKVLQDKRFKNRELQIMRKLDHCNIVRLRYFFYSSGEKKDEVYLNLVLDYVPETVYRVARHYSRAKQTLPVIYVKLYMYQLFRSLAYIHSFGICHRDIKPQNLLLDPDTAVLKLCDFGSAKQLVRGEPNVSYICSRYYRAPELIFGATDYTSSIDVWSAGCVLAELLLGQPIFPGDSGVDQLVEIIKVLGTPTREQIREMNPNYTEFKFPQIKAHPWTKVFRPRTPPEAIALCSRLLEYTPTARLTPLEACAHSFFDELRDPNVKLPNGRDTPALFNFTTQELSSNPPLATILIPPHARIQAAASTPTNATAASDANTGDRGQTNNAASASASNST

[10] = molecular target: cAMP-dependent protein kinase catalytic subunit alpha (Homo sapiens, UniProt P17612); format: functional
[11] = molecular target: Dual specificity protein kinase CLK4 (Homo sapiens, UniProt Q9HAZ1); format: functional
Sequence of Dual specificity protein kinase CLK4 (Q9HAZ1 whole entry): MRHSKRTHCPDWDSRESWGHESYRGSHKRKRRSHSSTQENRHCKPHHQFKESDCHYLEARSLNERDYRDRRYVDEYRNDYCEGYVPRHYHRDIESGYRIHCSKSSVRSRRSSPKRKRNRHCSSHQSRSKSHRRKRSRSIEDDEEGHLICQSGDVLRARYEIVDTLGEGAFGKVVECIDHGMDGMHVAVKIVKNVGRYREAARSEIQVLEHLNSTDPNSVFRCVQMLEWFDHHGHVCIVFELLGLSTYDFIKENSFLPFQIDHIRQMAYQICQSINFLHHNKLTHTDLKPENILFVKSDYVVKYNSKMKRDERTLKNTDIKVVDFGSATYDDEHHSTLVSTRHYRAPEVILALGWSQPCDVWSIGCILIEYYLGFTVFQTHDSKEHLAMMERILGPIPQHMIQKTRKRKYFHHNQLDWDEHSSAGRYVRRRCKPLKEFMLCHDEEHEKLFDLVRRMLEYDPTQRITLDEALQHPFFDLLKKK

[12] = molecular target: Mitogen-activated protein kinase kinase kinase kinase 4 (Homo sapiens, UniProt O95819); format: functional
[13] = molecular target: Aurora kinase A (Homo sapiens, UniProt O14965); format: functional;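 note: value from the Navigating the Kinome kinase panel profiling, panel entry STK6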
[14] = molecular target: Vascular endothelial growth factor receptor 2 (Homo sapiens, UniProt P35968); format: functional
Sequence of Vascular endothelial growth factor receptor 2 (P35968 whole entry): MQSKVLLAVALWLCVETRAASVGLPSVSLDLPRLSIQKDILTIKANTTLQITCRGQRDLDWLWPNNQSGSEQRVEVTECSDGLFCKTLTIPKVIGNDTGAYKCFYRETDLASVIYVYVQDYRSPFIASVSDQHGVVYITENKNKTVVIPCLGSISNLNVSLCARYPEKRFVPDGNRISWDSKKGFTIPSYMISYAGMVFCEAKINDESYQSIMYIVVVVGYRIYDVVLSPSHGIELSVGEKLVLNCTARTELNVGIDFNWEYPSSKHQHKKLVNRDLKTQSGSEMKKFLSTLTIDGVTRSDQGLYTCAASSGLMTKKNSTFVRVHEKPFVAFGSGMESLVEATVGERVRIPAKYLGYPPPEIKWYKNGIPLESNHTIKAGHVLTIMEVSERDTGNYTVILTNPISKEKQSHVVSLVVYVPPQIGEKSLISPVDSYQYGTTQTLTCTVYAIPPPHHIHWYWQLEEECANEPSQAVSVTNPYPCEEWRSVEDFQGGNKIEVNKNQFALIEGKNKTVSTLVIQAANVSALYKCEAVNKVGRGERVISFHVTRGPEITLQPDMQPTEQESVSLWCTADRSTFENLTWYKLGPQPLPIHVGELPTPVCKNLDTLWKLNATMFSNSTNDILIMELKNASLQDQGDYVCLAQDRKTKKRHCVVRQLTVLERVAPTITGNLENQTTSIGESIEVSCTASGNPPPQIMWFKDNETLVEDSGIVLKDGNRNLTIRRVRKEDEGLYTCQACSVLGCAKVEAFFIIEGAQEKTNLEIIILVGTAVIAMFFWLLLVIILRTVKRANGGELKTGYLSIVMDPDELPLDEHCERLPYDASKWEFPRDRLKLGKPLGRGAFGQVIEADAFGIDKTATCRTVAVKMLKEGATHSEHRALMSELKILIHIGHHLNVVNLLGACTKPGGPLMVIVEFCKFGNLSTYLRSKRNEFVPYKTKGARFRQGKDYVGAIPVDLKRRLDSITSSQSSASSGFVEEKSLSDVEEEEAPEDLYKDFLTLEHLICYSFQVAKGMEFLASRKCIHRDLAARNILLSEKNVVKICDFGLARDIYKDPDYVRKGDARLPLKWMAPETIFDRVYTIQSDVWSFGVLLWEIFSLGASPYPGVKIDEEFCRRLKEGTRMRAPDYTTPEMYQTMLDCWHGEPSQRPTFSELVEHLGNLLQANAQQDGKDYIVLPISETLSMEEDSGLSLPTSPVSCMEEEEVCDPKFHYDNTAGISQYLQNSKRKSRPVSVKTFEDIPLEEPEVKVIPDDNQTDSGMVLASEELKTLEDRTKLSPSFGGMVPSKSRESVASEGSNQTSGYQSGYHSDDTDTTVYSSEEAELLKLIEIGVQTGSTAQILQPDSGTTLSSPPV

[15] = molecular target: Aurora kinase B (Homo sapiens, UniProt Q96GD4); format: functional
Sequence of Aurora kinase B (Q96GD4 whole entry): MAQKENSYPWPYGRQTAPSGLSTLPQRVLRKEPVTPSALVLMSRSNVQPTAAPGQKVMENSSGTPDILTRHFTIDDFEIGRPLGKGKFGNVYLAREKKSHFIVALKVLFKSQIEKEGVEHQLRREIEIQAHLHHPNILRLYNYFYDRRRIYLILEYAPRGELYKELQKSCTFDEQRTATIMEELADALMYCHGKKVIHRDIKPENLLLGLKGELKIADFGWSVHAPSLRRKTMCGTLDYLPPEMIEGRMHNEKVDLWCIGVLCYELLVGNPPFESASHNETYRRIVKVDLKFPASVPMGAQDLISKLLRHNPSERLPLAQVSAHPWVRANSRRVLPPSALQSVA

[16] = molecular target: Neuropeptides B/W receptor type 1 (Homo sapiens, UniProt P48145); assay: human NPBW1 receptor blockade, IC50 – cell-based, fluorescence, dose response, set 5, late-stage follow-up (AID 588566); format: functional
Sequence of Neuropeptides B/W receptor type 1 (P48145 whole entry): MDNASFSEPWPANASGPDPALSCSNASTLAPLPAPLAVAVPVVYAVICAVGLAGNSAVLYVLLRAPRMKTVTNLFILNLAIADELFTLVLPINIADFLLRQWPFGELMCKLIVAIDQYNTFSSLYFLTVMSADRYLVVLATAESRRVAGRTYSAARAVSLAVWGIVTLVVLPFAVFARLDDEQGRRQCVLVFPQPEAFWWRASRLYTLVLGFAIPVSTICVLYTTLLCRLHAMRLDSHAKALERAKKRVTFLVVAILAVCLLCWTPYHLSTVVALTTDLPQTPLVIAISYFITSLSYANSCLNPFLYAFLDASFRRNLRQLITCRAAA

[17] = molecular target: Melanin-concentrating hormone receptor 1 (Homo sapiens, UniProt Q99705); assay: Late-stage fluorescence-based counterscreen for antagonists of the G-protein coupled receptor 7 (GPR7): cell-based dose response assay to identify antagonists of the melanin-concentrating hormone receptor 1 (MCHR1) Set 5.; format: functional
Sequence of Melanin-concentrating hormone receptor 1 (Q99705 whole entry): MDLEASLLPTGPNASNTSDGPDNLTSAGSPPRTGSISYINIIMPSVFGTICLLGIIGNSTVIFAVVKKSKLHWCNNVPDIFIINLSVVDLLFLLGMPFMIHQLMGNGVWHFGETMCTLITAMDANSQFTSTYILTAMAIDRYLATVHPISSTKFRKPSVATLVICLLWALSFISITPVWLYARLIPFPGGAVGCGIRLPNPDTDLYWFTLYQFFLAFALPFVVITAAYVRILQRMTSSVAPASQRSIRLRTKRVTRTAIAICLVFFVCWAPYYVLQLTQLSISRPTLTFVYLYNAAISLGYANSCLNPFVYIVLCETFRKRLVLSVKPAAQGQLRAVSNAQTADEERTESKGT

SMILES: COc1cc(C(=S)N2CCOCC2)ccc1OC(=O)c1ccc([N+](=O)[O-])cc1[N+](=O)[O-]
- IC50 [1]: > 64.6 µM (inactive)
- IC50 [2]: > 64.6 µM (inactive)

- Ki [3]: > 7.94 µM (inactive)
- Ki [4]: 2 µM (active)
- Ki [5]: 0.0316 µM (active)
- Ki [6]: > 3.16 µM (inactive)
- Ki [7]: > 10 µM (inactive)
- Ki [8]: > 10 µM (inactive)
- Ki [9]: 6.31 µM (active)
- Ki [10]: > 7.94 µM (inactive)
- Ki [11]: > 10 µM (inactive)
- Ki [12]: > 10 µM (inactive)
SMILES: NC1CCCCC1Nc1nccc(Nc2ccccc2C(=O)O)n1 (configuration not stated)

- Ki [13]: 0.501 µM (active)
- Ki [14]: 3.98 µM (active)
- Ki [15]: 0.00631 µM (active)
SMILES: O=S(=O)(Nc1ccc2c(c1)C(=NO)c1ccccc1-2)c1cccc(F)c1

- IC50 [16]: 0.368 µM (active)
- IC50 [17]: 11.2 µM (inactive)
SMILES: O=c1c(Oc2ccc3c(c2)OCO3)c(Cl)cnn1Cc1cccc2ccccc12
